Assay results as given in patent publication US11135320B2, “Radioligands for pretargeted pet imaging and methods of their therapeutic use” (priority 2015, dated 2021).
Where “and” joins values, the source holds several entries; their conditions need not be identical. Equal values may be shown once. Read-outs that look alike come from different tables or passages of the source.

Legend:
[1] = tested on: subcutaneous SW1222 xenografts (A33 antigen-expressing human colorectal carcinoma); conditions: 24 h accumulation interval, Zeglis 2013, cited from earlier work
[2] = Dosimetry calculations (OLINDA) for huA33-based PET imaging strategies; parameters: species or system human (70-kg Standard Man model, from mouse biodistribution); conditions: pretargeting
Method: The radiation dosimetry of ^64Cu-Tz-SarAr was performed to ensure the selective delivery of radioisotopes to malignant tissues at radiation doses below the doses of traditional radioimmunoconjugates. To this end, dosimetry calculations were performed using the biodistribution data collected and the OLINDA computer program to determine the mean organ absorbed doses (rad/mCi) and effective dose (rem/mCi) for each strategy (Table 23). The total effective dose of the ^64Cu-Tz-SarAr pretargeting strategy with a 24 h interval period was 0.041 rem/mCi, a slight reduction compared to the 0.046 rem/mCi effective dose created by ^64Cu-Tz-NOTA. This difference was due to the significant reduction in the mean organ absorbed dose to the large intestine. Moreover, the total effective dose of the ^64Cu-Tz-SarAr pretargeting strategy was inversely proportional to the duration of the accumulation interval. For example, the effective dose decreased from 0.041 rem/mCi with a 24 h interval to 0.038 rem/mCi with a 48 h interval to 0.034 with a 120 h interval.
Mouse biodistribution data were expressed as normal-organ mean standard uptake values (SUVs) versus time post-administration. In first order, that SUVs were independent of body mass and thus the same among species, the mean SUV in mouse organ i, SUVOrgan i|Mouse, was converted to the fraction of the injected dose in each human organ I, FIDOrgan I|Human, using the following formula:
[formula] and the organ and total-body masses of the 70-kg Standard Man anatomic model. […] The cumulated activity, or residence time, in human organ i, μCi, in μCi h/μCi, was then calculated by analytically integrating the time-activity function in organ i, replacing the biological clearance constant, (λbλj, for each component j of the fitted exponential function with the corresponding effective clearance constant, (λeλj=(λbλj+λp, where λp is the physical decay constant of the radionuclide. The resulting organ residence times were entered into the OLINDA computer program to yield the mean organ absorbed doses and effective dose in rad/mCi and rem/mCi, respectively. Statistical Analysis

O=C([O-])CN1CCN(CC(=O)[O-])CC(Cc2ccc(NC(=O)CCCC(=O)NCc3ccc(-c4nncnn4)cc3)cc2)N(CC(=O)[O-])CC1.[64Cu+2] (centres unmarked) [^64Cu-Tz-NOTA]
Blood activity concentration ([1]; 1 h p.i.): 3.47 ± 0.63 % ID/g
Bone activity concentration ([1]; 1 h p.i.): 0.3 ± 0.16 % ID/g
Heart activity concentration ([1]; 1 h p.i.): 1.09 ± 0.18 % ID/g
Kidney activity concentration ([1]; 1 h p.i.): 1.3 ± 0.15 % ID/g
Large Intestine activity concentration ([1]; 1 h p.i.): 13.29±3.15 % ID/g
Liver activity concentration ([1]; 1 h p.i.): 2.19 ± 0.25 % ID/g
Lung activity concentration ([1]; 1 h p.i.): 1.58 ± 0.46 % ID/g
Muscle activity concentration ([1]; 1 h p.i.): 0.22 ± 0.04 % ID/g
Small Intestine activity concentration ([1]; 1 h p.i.): 0.03 ± 0.04 % ID/g
Spleen activity concentration ([1]; 1 h p.i.): 0.63 ± 0.07 % ID/g
Stomach activity concentration ([1]; 1 h p.i.): 0.45 ± 0.08 % ID/g
Tumor activity concentration ([1]; 1 h p.i.): 4.07 ± 0.25 % ID/g
Tumor/Blood activity concentration ratio ([1]; 1 h p.i.): 1.17 ± 0.22
Tumor/Bone activity concentration ratio ([1]; 1 h p.i.): 13.72 ± 7.63
Tumor/Heart activity concentration ratio ([1]; 1 h p.i.): 3.75 ± 0.65
Tumor/Kidney activity concentration ratio ([1]; 1 h p.i.): 3.14 ± 0.41
Tumor/Large Intestine activity concentration ratio ([1]; 1 h p.i.): 0.31 ± 0.08
Tumor/Liver activity concentration ratio ([1]; 1 h p.i.): 1.86 ± 0.24
Tumor/Lung activity concentration ratio ([1]; 1 h p.i.): 2.57 ± 0.76
Tumor/Muscle activity concentration ratio ([1]; 1 h p.i.): 18.42 ± 3.71
Tumor/Small Intestine activity concentration ratio ([1]; 1 h p.i.): 119.52 ± 148.82
Tumor/Spleen activity concentration ratio ([1]; 1 h p.i.): 6.46 ± 0.81
Tumor/Stomach activity concentration ratio ([1]; 1 h p.i.): 8.96 ± 1.7
Blood activity concentration ([1]; 4 h p.i.): 2.61 ± 0.83 % ID/g
Bone activity concentration ([1]; 4 h p.i.): 0.27 ± 0.24 % ID/g
Heart activity concentration ([1]; 4 h p.i.): 0.91 ± 0.27 % ID/g
Kidney activity concentration ([1]; 4 h p.i.): 0.95 ± 0.31 % ID/g
Large Intestine activity concentration ([1]; 4 h p.i.): 9.43 ± 4.22 % ID/g
Liver activity concentration ([1]; 4 h p.i.): 1.26 ± 0.3 % ID/g
Lung activity concentration ([1]; 4 h p.i.): 1.6 ± 0.39 % ID/g
Muscle activity concentration ([1]; 4 h p.i.): 0.14 ± 0.03 % ID/g
Small Intestine activity concentration ([1]; 4 h p.i.): 0.38 ± 0.08 % ID/g
Spleen activity concentration ([1]; 4 h p.i.): 0.51 ± 0.22 % ID/g
Stomach activity concentration ([1]; 4 h p.i.): 0.25 ± 0.12 % ID/g
Tumor activity concentration ([1]; 4 h p.i.): 4.09±0.61 % ID/g
Tumor/Blood activity concentration ratio ([1]; 4 h p.i.): 1.57 ± 0.55
Tumor/Bone activity concentration ratio ([1]; 4 h p.i.): 14.95 ± 13.2
Tumor/Heart activity concentration ratio ([1]; 4 h p.i.): 4.51 ± 1.49
Tumor/Kidney activity concentration ratio ([1]; 4 h p.i.): 4.32 ± 1.56
Tumor/Large Intestine activity concentration ratio ([1]; 4 h p.i.): 0.43 ± 0.2
Tumor/Liver activity concentration ratio ([1]; 4 h p.i.): 3.23 ± 0.9
Tumor/Lung activity concentration ratio ([1]; 4 h p.i.): 2.55 ± 0.73
Tumor/Muscle activity concentration ratio ([1]; 4 h p.i.): 29.38 ± 8.5
Tumor/Small Intestine activity concentration ratio ([1]; 4 h p.i.): 10.83 ± 2.8
Tumor/Spleen activity concentration ratio ([1]; 4 h p.i.): 7.97 ± 3.57
Tumor/Stomach activity concentration ratio ([1]; 4 h p.i.): 16.17 ± 8.21
Blood activity concentration ([1]; 12 h p.i.): 2.31 ± 0.4 % ID/g
Bone activity concentration ([1]; 12 h p.i.): 0.35 ± 0.11 % ID/g
Heart activity concentration ([1]; 12 h p.i.): 0.92 ± 0.14 % ID/g
Kidney activity concentration ([1]; 12 h p.i.): 0.91 ± 0.29 % ID/g
Large Intestine activity concentration ([1]; 12 h p.i.): 2.92 ± 1.34 % ID/g
Liver activity concentration ([1]; 12 h p.i.): 0.93 ± 0.23 % ID/g
Lung activity concentration ([1]; 12 h p.i.): 1.09 ± 0.38 % ID/g
Muscle activity concentration ([1]; 12 h p.i.): 0.16 ± 0.02 % ID/g
Small Intestine activity concentration ([1]; 12 h p.i.): 0.77 ± 0.51 % ID/g
Spleen activity concentration ([1]; 12 h p.i.): 0.59 ± 0.25 % ID/g
Stomach activity concentration ([1]; 12 h p.i.): 0.52 ± 0.64 % ID/g
Tumor activity concentration ([1]; 12 h p.i.): 4.20 ± 0.84 % ID/g
Tumor/Bone activity concentration ratio ([1]; 12 h p.i.): 11.98 ± 4.51
Tumor/Heart activity concentration ratio ([1]; 12 h p.i.): 4.58 ± 1.16
Tumor/Kidney activity concentration ratio ([1]; 12 h p.i.): 4.6 ± 1.71
Tumor/Large Intestine activity concentration ratio ([1]; 12 h p.i.): 1.44±0.72
Tumor/Liver activity concentration ratio ([1]; 12 h p.i.): 4.53 ± 1.45
Tumor/Lung activity concentration ratio ([1]; 12 h p.i.): 3.87 ± 1.55
Tumor/Small Intestine activity concentration ratio ([1]; 12 h p.i.): 5.46 ± 3.81
Tumor/Spleen activity concentration ratio ([1]; 12 h p.i.): 7.1 ± 3.34
Tumor/Stomach activity concentration ratio ([1]; 12 h p.i.): 8.12 ± 10.12
Blood activity concentration ([1]; 24 h p.i.): 2.07 ± 0.49 % ID/g
Bone activity concentration ([1]; 24 h p.i.): 0.29 ± 0.07 % ID/g
Heart activity concentration ([1]; 24 h p.i.): 0.82 ± 0.21 % ID/g
Kidney activity concentration ([1]; 24 h p.i.): 0.7 ± 0.19 % ID/g
Large Intestine activity concentration ([1]; 24 h p.i.): 1.67 ± 0.88 % ID/g
Liver activity concentration ([1]; 24 h p.i.): 1.07 ± 0.15 % ID/g
Lung activity concentration ([1]; 24 h p.i.): 1.03 ± 0.31 % ID/g
Muscle activity concentration ([1]; 24 h p.i.): 0.15 ± 0.02 % ID/g
Small Intestine activity concentration ([1]; 24 h p.i.): 0.35 ± 0.04 % ID/g
Spleen activity concentration ([1]; 24 h p.i.): 0.45 ± 0.11 % ID/g
Stomach activity concentration ([1]; 24 h p.i.): 0.16 ± 0.03 % ID/g
Tumor activity concentration ([1]; 24 h p.i.): 3.94 ± 0.92 % ID/g
Tumor/Blood activity concentration ratio ([1]; 24 h p.i.): 1.9 ± 0.63
Tumor/Bone activity concentration ratio ([1]; 24 h p.i.): 13.43 ± 4.5
Tumor/Heart activity concentration ratio ([1]; 24 h p.i.): 4.82 ± 1.69
Tumor/Kidney activity concentration ratio ([1]; 24 h p.i.): 5.61 ± 1.98
Tumor/Large Intestine activity concentration ratio ([1]; 24 h p.i.): 2.36 ± 1.37
Tumor/Liver activity concentration ratio ([1]; 24 h p.i.): 3.69 ± 1.01
Tumor/Lung activity concentration ratio ([1]; 24 h p.i.): 3.83 ± 1.45
Tumor/Muscle activity concentration ratio ([1]; 24 h p.i.): 26.98 ± 7.41
Tumor/Small Intestine activity concentration ratio ([1]; 24 h p.i.): 11.4 ± 2.91
Tumor/Spleen activity concentration ratio ([1]; 24 h p.i.): 8.79 ± 2.98
Tumor/Stomach activity concentration ratio ([1]; 24 h p.i.): 24.29 ± 6.89

NC12CNCCNCC(NCc3ccc(CNC(=O)CCCC(=O)NCc4ccc(-c5nncnn5)cc4)cc3)(CNCCNC1)CNCCNC2.[64Cu+2] [^64Cu-Tz-SarAr]
Brain absorbed dose ([2]; 24 h interval): 0.0361 rad/mCi
Breasts absorbed dose ([2]; 24 h interval): 0.0323 rad/mCi
Effective Dose ([2]; 24 h interval): 0.041 rem/mCi and 0.0414 rem/mCi
Heart Wall absorbed dose ([2]; 24 h interval): 0.0427 rad/mCi
Kidneys absorbed dose ([2]; 24 h interval): 0.0661 rad/mCi
Lower Lg. Int. Wall absorbed dose ([2]; 24 h interval): 0.0482 rad/mCi
Osteogenic Cells absorbed dose ([2]; 24 h interval): 0.0893 rad/mCi
Ovaries absorbed dose ([2]; 24 h interval): 0.0401 rad/mCi
Pancreas absorbed dose ([2]; 24 h interval): 0.0395 rad/mCi
Skin absorbed dose ([2]; 24 h interval): 0.0297 rad/mCi
Small Intestine absorbed dose ([2]; 24 h interval): 0.0418 rad/mCi
Spleen absorbed dose ([2]; 24 h interval): 0.0370 rad/mCi
Stomach Wall absorbed dose ([2]; 24 h interval): 0.0552 rad/mCi
Testes absorbed dose ([2]; 24 h interval): 0.0345 rad/mCi
Thymus absorbed dose ([2]; 24 h interval): 0.0349 rad/mCi
Upper Lg. Int. Wall absorbed dose ([2]; 24 h interval): 0.0409 rad/mCi
Uterus absorbed dose ([2]; 24 h interval): 0.0410 rad/mCi
Effective Dose ([2]; 48 h interval): 0.038 rem/mCi and 0.0377 rem/mCi
Kidneys absorbed dose ([2]; 48 h interval): 0.0539 rad/mCi
Pancreas absorbed dose ([2]; 48 h interval): 0.0364 rad/mCi
Spleen absorbed dose ([2]; 48 h interval): 0.0205 rad/mCi
Stomach Wall absorbed dose ([2]; 48 h interval): 0.0422 rad/mCi
Uterus absorbed dose ([2]; 48 h interval): 0.0383 rad/mCi
Effective Dose ([2]; 120 h interval): 0.034 rem/mCi and 0.0341 rem/mCi
Heart Wall absorbed dose ([2]; 120 h interval): 0.0330 rad/mCi
Kidneys absorbed dose ([2]; 120 h interval): 0.0566 rad/mCi
Lungs absorbed dose ([2]; 120 h interval): 0.0216 rad/mCi
Osteogenic Cells absorbed dose ([2]; 120 h interval): 0.0720 rad/mCi
Spleen absorbed dose ([2]; 120 h interval): 0.0225 rad/mCi
